The target in series [1] is T1, FAAH (Mus musculus, UniProt O08914).
T1 construct: A fragment of liver, left lung lobe and brain without cerebellum were removed; from tissue; host or cells: mouse brain, liver and lung homogenates
T1 sequence (O08914 1-579): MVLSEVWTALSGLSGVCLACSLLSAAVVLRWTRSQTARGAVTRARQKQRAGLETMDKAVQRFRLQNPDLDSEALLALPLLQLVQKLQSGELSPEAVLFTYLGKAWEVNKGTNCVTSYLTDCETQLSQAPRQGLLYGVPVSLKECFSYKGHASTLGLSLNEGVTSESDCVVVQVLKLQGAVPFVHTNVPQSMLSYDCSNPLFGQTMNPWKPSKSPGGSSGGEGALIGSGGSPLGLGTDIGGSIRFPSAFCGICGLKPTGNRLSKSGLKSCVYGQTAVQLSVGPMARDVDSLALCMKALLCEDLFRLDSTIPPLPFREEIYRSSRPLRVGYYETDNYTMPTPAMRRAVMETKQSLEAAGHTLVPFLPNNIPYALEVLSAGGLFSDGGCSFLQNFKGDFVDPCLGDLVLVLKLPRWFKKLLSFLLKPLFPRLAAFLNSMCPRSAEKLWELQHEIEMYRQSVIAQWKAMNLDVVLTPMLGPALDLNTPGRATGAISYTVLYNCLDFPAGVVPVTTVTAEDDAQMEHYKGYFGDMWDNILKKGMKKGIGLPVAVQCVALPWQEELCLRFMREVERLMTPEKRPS
Kind of series: In vivo protocol: FAAH activity in tissue homogenates after oral dosing of mice. The following applies: for Peripheral Selectivity: FAAH activity in liver divided by FAAH activity in brain, lower = more peripherally selective; for activity at 3 mg/kg / activity at 0.1 mg/kg / activity at 1 mg/kg / activity at 10 mg/kg: mouse. How it is done: In vivo testing was performed according to the protocol described below. BRh (brain homogenate) indicates inhibition in central nervous tissue, in this case, brain, and LVh (liver homogenate) indicates inhibition in peripheral tissue, in this case, liver. The controls were the reaction mix minus the test compounds. Therefore, a low value for the test compound indicates a strong inhibitor.
The animals used for experiments were male NMRI mice (weighing 27-44 g) obtained from Interfauna Ibérica (Spain). Mice were kept 5 per cage, under controlled environmental conditions (12 hr light/dark cycle and room temperature 221° C.). Food and tap water were allowed ad libitum and the experiments were all carried out during daylight hours.
[…] compounds via oral route (8 ml/kg; compound suspended in 0.5% carboxymethylcellulose (CMC) or solubilized in water) or vehicle (controls) using animal feeding stainless steel curve needles (Perfectum, U.S.A.). Fifteen minutes before sacrifice animal were anesthetized with pentobarbital 60 mg/kg administered intraperitoneally. A fragment of liver, left lung lobe and brain without cerebellum were removed and put in plastic vials containing membrane buffer (3 mM MgCl2, 1 mM EDTA, 50 mM Tris HCl pH 7.4). Tissues were stored at −30° C. until analysis.
Animals were always fasted overnight before administration of compounds except for time points of >18 h, where food was removed on the morning of day of administration and the compound was administered in the afternoon of the same day. Animals were then given water but nothing else.
Tissues were thawed on ice and were homogenized in 10 volumes of membrane buffer (3 mM MgCl2, 1 mM EDTA, 50 mM Tris HCl pH 7.4) with either Potter-Elvejhem (brains—8 strokes at 500 rpm) or Heidolph Diax (livers—2 strokes at position 5 for 20 sec with 30 sec pauses).
Total protein in tissues was determined with the BioRad Protein Assay (BioRad) using a standard curve of BSA (50-250 μg/ml).
Reaction mix (total volume of 200 μl) contained: 2 μM AEA (2 μM AEA+5 nM ^3H-AEA), 0.1% fatty acid free BSA, 15 μg (brain), 5 μg (liver) or 50 μg (lung) protein, in 1 mM EDTA, 10 mM Tris pH 7.6. After a 15 min pre-incubation period at 37° C. reaction was started by the addition of the substrate solution (cold AEA+radiolabelled AEA+BSA). Reaction was carried out for 10 min (brain and lung) or 7 min (liver) before termination by the addition of 400 μl activated charcoal suspension (8 g charcoal in 32 ml 0.5 M HCl in continuous agitation). After a 30 min incubation period at room temperature with agitation, charcoal was sedimented by centrifugation in microfuge (10 min at 13000 rpm). 200 μl of the supernatant were added to 800 μl Optiphase Supermix scintillation cocktail previously distributed in 24-well plates. Counts per minute (cpm) were determined in a MicrobetaTriLux scintillation counter.
In each assay blanks (without protein) were prepared.
The percentage of remaining enzymatic activity was calculated with respect to controls and after blank subtraction.

The target of series [2] is T1, FAAH. As to the kind of experiment: ED50 determination of FAAH inhibition in liver after p.o. administration. The class given is in vivo. The settings on record: po, read-out: Liver ED50 (95CI). The text has this:
Confidence intervals (95%) are included.

A short description of series [3]: CYPs metabolic stability assay in MLM. The class given is in vitro ADME, mouse. The settings on record: 1 h, 50 μM; for Metabolic Stability (% of Remaining) Mouse CYP+: with NADPH; for Metabolic Stability (% of Remaining) Mouse CYP−: without NADPH. The protocol: (§1) Stability of the test compounds was performed in MLM (mouse liver microsomes) or HLM (human liver microsomes) in the presence and in the absence of NADPH.
(§2) The stability was measured using the incubation mixture (100 μl total volume) contained 1 mg/ml total protein, MgCl2 5 mM and 50 mM K-phosphate buffer. Samples were incubated in the presence and in the absence of NADPH 1 mM. Reactions were pre-incubated 5 min and the reaction initiated with the compound under test (5 μM for HLM and 50 μM for MLM). Samples were incubated for 60 min in a shaking water bath at 37° C. The reaction was stopped by adding 100 μl of acetonitrile. Samples were then centrifuged, filtered and supernatant injected in HLPC-MSD. Test compounds were dissolved in DMSO and the final concentration of DMSO in the reaction was below 0.5% (v/v). At TO acetonitrile was added before adding the compound. All experiments were performed with samples in duplicate.
(§3) The stability data are given as % of remaining compound after 1 h exposure to MLM or HLM. 100% means no metabolic reaction at all and 0% corresponds to full enzymatic degradation. “CYP−” refers to the absence of cofactor (NADPH) which is essential for CYP metabolic reactions. Therefore “CYP−” can be regarded as control value. “CYP+” refers to the presence of cofactor and the enzymatic degradation may take place according to the stability of the test compound.

The nature of series [4]: CYPs metabolic stability assay in HLM. The format is in vitro ADME, human. The following applies: 1 h, 5 μM; for Metabolic Stability (% of Remaining) Human CYP+: with NADPH; for Metabolic Stability (% of Remaining) Human CYP−: without NADPH. How it is done: as §1, §2, §3
Series [5] addresses T2, FAAH (Rattus norvegicus, UniProt P97612).
T2 construct: Frozen brains from 4 Wistar rats were homogenized; from tissue; host or cells: Wistar rat brain membranes
T2 sequence (P97612 1-579): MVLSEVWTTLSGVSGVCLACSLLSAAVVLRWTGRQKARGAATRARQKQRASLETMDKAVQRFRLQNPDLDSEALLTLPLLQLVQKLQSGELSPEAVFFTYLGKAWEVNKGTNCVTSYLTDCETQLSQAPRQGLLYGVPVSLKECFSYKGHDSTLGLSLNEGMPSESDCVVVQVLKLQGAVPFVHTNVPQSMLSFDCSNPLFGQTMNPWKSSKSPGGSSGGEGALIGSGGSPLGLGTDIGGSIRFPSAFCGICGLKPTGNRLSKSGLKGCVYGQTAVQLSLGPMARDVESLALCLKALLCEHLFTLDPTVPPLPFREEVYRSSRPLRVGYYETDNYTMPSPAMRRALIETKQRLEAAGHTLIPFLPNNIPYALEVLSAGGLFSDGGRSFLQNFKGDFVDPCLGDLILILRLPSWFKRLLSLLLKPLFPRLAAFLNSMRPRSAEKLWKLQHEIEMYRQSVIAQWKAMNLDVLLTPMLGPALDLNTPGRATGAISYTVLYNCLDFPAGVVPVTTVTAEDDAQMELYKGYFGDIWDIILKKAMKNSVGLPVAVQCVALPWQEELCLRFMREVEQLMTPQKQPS
Kind of series: Determination of IC50 in rat brain membrane FAAH enzymatic assay (3H-AEA). The class given is biochemical. The following applies: rat brain membranes, 2 μM AEA, 15 min preincubation. The protocol: Anandamide[ethanolamine-1-^3H-] was obtained from American Radiochemicals—with a specific activity of 60 Ci/mmol. All other reagents were obtained from Sigma-Aldrich. Optiphase Supermix was obtained from Perkin Elmer and activated charcoal was obtained from Sigma.
Frozen brains from 4 Wistar rats were homogenized in 20 ml 1 mM MgCl2, 20 mM HEPES (4-(2-hydroxyethyl)-1-piperazineethanesulfonic acid) pH 7.0 with Potter-Elvejhem (8 strokes at 500 rpm). Homogenates were centrifuged for 20 min at 36000 g at 4° C. (Beckman, 70Ti rotor). Pellets were resuspended in 15 ml of the same buffer and centrifuged under the same conditions. Pellets were resuspended in 15 ml of the same buffer and incubated for 15 min at 37° C. after which they were centrifuged for 20 min at 36000 g at 4° C. Each pellet was then resuspended in 10 ml 3 mM MgCl2, 1 mM EDTA (Ethylenediaminetetraacetic acid), 50 mM Tris (2-Amino-2-hydroxymethyl-propane-1,3-diol) pH 7.4 and protein determined with the BioRad Protein Assay (BioRad) using a standard curve of BSA (Bovine Serum Albumin) (50-250 μg/ml).
Reaction mix (total volume of 200 μl) contained: 2 μM AEA (2 μM AEA+5 nM ^3H-AEA), 0.1% fatty acid free BSA, 5 or 10 μg protein, in 1 mM EDTA, 10 mM Tris pH 7.6 and compound 1 at various concentrations. […] Counts per minute (CPM) or disintegrations per minute (DPM) were determined in a MicrobetaTriLux scintillation counter. […]

Where [6] appears, read: 1 h, 3 mg/kg, read-out: FAAH Activity (%) mouse Liver.
[7] abbreviates: 8 h, 0.1 mg/kg, read-out: FAAH Activity (%) mouse Liver.
Where [8] appears, read: 8 h, read-out: FAAH Activity (%) mouse Liver.
The mark [9] stands for this setting: 8 h, 3 mg/kg, read-out: FAAH Activity (%) mouse Liver.
[10] abbreviates: po, brain homogenate, 3 mg/kg po, 8 h, % remaining activity vs control, read-out: FAAH Activity (%) Br. h. 3 mg/kg. 8 h. po.
Setting [11] is: po, liver homogenate, 3 mg/kg po, 8 h, % remaining activity vs control, read-out: FAAH Activity (%) Lv. h. 3 mg/kg. 8 h. po.

Where two headings read alike, the source gives them in different places. Some results are limits rather than exact numbers.

Turning to `CN(C(=O)n1cnc(-c2cccc(NC(N)=O)c2)c1)C1CCCC1` [Compound 1, N-Cyclopentyl-N-methyl-4-(3-ureidophenyl)-1H-imidazole-1-carboxamide], the “Peripheral Selectivity” value on FAAH [1] (3 mg/kg po, 8 h) amounted to 0.008. For the same compound, the “factor by which most peripherally selective compound” value at FAAH [1] (compared with comparator compounds, 3 mg/kg po, 8 h) is more than 2. At FAAH [1] (mouse liver, 0.1 mg/kg, 8 h post-dose), the “fold more potent than comparator compound 2” value was “more than 10 fold”. In addition, the activity at 3 mg/kg on FAAH [1] (setting [6]) was found to be 1.9%; at FAAH [1] (setting [9]) it was 0.7%; at FAAH [1] (setting [10]), 85.1%; on FAAH [1] (setting [11]), 0.7%. Moreover, at FAAH [1] (setting [7]), the activity at 0.1 mg/kg is 6.4%. Also, the activity at 1 mg/kg at FAAH [1] (setting [8]) came out at 1.6%. In addition, on FAAH [1] (setting [8]), the activity at 10 mg/kg worked out at 0.4%. Besides, the ED50 on FAAH [2] was found to be 0.03 mg/kg. In addition, the “Metabolic Stability (% of Remaining) Mouse CYP+” value in series [3] turned out to be 96%. Besides, the “Metabolic Stability (% of Remaining) Mouse CYP−” value in series [3] turned out to be 95%. Moreover, in series [4], the “Metabolic Stability (% of Remaining) Human CYP+” value is given as 82%. The “Metabolic Stability (% of Remaining) Human CYP−” value in series [4] amounted to 99%. At FAAH [5], the IC50 was 27 nM.
In the case of `CN(C(=O)n1cnc(-c2ccc(F)c(O)c2)c1)C1CCCC1` [Comparator Compound 2, N-cyclopentyl-4-(4-fluoro-3-hydroxyphenyl)-N-methyl-1H-imidazole-1-carboxamide], the “Peripheral Selectivity” value on FAAH [1] (3 mg/kg po, 8 h) is 0.017. In addition, the activity at 3 mg/kg on FAAH [1] (setting [6]) came to 17%. Further, the activity at 0.1 mg/kg at FAAH [1] (setting [7]) stood at 73.8%. At FAAH [1] (setting [8]), the activity at 1 mg/kg is 4.9% and the activity at 10 mg/kg turned out to be 1.2%. On FAAH [1] (setting [9]), the activity at 3 mg/kg stood at 2.1%. For the same compound, the activity at 3 mg/kg at FAAH [1] (setting [10]) is 121%. The activity at 3 mg/kg on FAAH [1] (setting [11]) was found to be 2.1%. Besides, the ED50 on FAAH [2] (Time 8 h) was found to be 0.17 mg/kg. Also, in series [3], the “Metabolic Stability (% of Remaining) Mouse CYP+” value was 53% and the “Metabolic Stability (% of Remaining) Mouse CYP−” value came to 92%. Further, in series [4], the “Metabolic Stability (% of Remaining) Human CYP+” value is recorded as 70% and the “Metabolic Stability (% of Remaining) Human CYP−” value is on record as 92%.
Regarding `CN(C(=O)n1cnc(-c2cccc(NC(=N)N)c2)c1)C1CCCCC1` [Comparator Compound 1, N-cyclohexyl-4-(3-guanidinophenyl)-N-methyl-1H-imidazole-1-carboxamide], the “Peripheral Selectivity” value on FAAH [1] (3 mg/kg po, 8 h) is recorded as 0.235. The figures for the activity at 3 mg/kg at FAAH [1] (setting [10]) and at FAAH [1] (setting [11]) were 86.2% and 20.3%, respectively.

Usually ED50 stands for the dose at which the effect has come halfway, by size or by number of responders. As a reminder, the IC50 is the point on the concentration scale where inhibition reaches its midpoint.
